By IC50 is commonly meant the concentration needed to halve the response being measured.

The target in the assay is catalytic domain of human Bub1 (amino acids 704-1085) (Homo sapiens (Human), UniProt O43683). The experiment in a line: Bub1 kinase assay (TR-FRET). The class given is biochemical. Conditions: 10 μM ATP, 1 μM peptide substrate, recombinant catalytic domain of human Bub1, read-out: Bub1 kinase assay median IC50. An excerpt: Bub1-inhibitory activities of compounds described in the present invention were quantified using a time-resolved fluorescence energy transfer (TR-FRET) kinase assay which measures phosphorylation of the synthetic peptide Biotin-Ahx-VLLPKKSFAEPG (C-terminus in amide form), purchased from e.g. Biosyntan (Berlin, Germany) by the (recombinant) catalytic domain of human Bub1 (amino acids 704-1085), expressed in Hi5 insect cells with an N-terminal His6-tag and purified by affinity- (Ni-NTA) and size exclusion chromatography.
Chain of catalytic domain of human Bub1 (amino acids 704-1085) (O43683 704-1085): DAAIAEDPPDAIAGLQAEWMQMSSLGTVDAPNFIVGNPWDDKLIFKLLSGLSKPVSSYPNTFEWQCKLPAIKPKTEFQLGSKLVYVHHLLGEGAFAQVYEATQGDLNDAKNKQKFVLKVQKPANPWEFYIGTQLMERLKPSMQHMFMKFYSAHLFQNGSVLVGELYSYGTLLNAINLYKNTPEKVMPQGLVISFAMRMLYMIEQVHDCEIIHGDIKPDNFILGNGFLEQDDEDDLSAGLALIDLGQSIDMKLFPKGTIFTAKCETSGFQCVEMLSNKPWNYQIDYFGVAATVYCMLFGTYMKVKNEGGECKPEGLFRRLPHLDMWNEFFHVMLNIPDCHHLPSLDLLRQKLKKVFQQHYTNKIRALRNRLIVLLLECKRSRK
In a typical assay 11 different concentrations of each compound (0.1 nM, 0.33 nM, 1.1 nM, 3.8 nM, 13 nM, 44 nM, 0.15 μM, 0.51 μM, 1.7 μM, 5.9 μM and 20 μM) were tested in duplicate within the same microtiter plate. To this end, 100-fold concentrated compound solutions (in DMSO) were previously prepared by serial dilution (1:3.4) of 2 mM stocks in a clear low volume 384-well source microtiter plate (Greiner Bio-One, Frickenhausen, Germany), from which 50 nl of compounds were transferred into a black low volume test microtiter plate from the same supplier. Subsequently, 2 μl of Bub1 (the final concentration of Bub1 was adjusted depending on the activity of the enzyme lot in order to be within the linear dynamic range of the assay: typically ˜200 ng/ml were used) in aqueous assay buffer [50 mM Tris/HCl pH 7.5, 10 mM magnesium chloride (MgCl2), 200 mM potassium chloride (KCl), 1.0 mM dithiothreitol (DTT), 0.1 mM sodium ortho-vanadate, 1% (v/v) glycerol, 0.01% (w/v) bovine serum albumine (BSA), 0.005% (v/v) Trition X-100 (Sigma), 1× Complete EDTA-free protease inhibitor mixture (Roche)] were added to the compounds in the test plate and the mixture was incubated for 15 min at 22° C. to allow pre-equilibration of the putative enzyme-inhibitor complexes before the start of the kinase reaction, which was initiated by the addition of 3 μl 1.67-fold concentrated solution (in assay buffer) of adenosine-tri-phosphate (ATP, 10 μM final concentration) and peptide substrate (1 μM final concentration). The resulting mixture (5 μl final volume) was incubated at 22° C. during 60 min., and the reaction was stopped by the addition of 5 μl of an aqueous EDTA-solution (50 mM EDTA, in 100 mM HEPES pH 7.5 and 0.2% (w/v) bovine serum albumin) which also contained the TR-FRET detection reagents (0.2 μM streptavidin-XL665 [Cisbio Bioassays, Codolet, France] and 1 nM anti-phosho-Serine antibody [Merck Millipore, cat. #35-002] and 0.4 nM LANCE EU-W1024 labeled anti-mouse IgG antibody [Perkin-Elmer, product no. AD0077, alternatively a Terbium-cryptate-labeled anti-mouse IgG antibody from Cisbio Bioassays can be used]). The stopped reaction mixture was further incubated 1 h at 22° C. in order to allow the formation of complexes between peptides and detection reagents. Subsequently, the amount of product was evaluated by measurement of the resonance energy transfer from the Eu-chelate-antibody complex recognizing the Phosphoserine residue to the streptavidin-XL665 bound to the biotin moiety of the peptide. To this end, the fluorescence emissions at 620 nm and 665 nm after excitation at 330-350 nm were measured in a TR-FRET plate reader, e.g. a Rubystar or Pherastar (both from BMG Labtechnologies, Offenburg, Germany) or a Viewlux (Perkin-Elmer) and the ratio of the emissions (665 nm/622 nm) was taken as indicator for the amount of phosphorylated substrate. The data were normalised using two sets of control wells for high- (=enzyme reaction without inhibitor=0%=Minimum inhibition) and low- (=all assay components without enzyme=100%=Maximum inhibition) Bub1 activity. IC50 values were calculated by fitting the normalized inhibition data to a 4-parameter logistic equation (Minimum, Maximum, IC50, Hill; Y=Max+(Min−Max)/(1+(X/IC50)Hill)).
Background: Time-resolved FRET reads energy transfer from a long-lived donor to a nearby acceptor.
Take `CC(=O)Nc1cc(-c2[nH]c3c(c2Nc2ccccc2)C(=O)N(C)CC3)ccn1` [Example 23]: the IC50 turned out to be 23.2 nM. The same measure for `CN1CCc2[nH]c(-c3ccncc3OCC(F)F)c(Nc3ccccc3)c2C1=O` [Example 29, 2-[3-(2,2-difluoroethoxy)pyridin-4-yl]-5-methyl-3-(phenylamino)-1,5,6,7-tetrahydro-4H-pyrrolo[3,2-c]pyridin-4-one]: 70.8 nM; for `CN1CCc2[nH]c(-c3ccncc3OCCO)c(Nc3ccccc3)c2C1=O` [Example 26, 2-[3-(2-hydroxyethoxy)pyridin-4-yl]-5-methyl-3-(phenylamino)-1,5,6,7-tetrahydro-4H-pyrrolo[3,2-c]pyridin-4-one]: 47.6 nM; for `CC(C)C(=O)Nc1cc(-c2[nH]c3c(c2Nc2ccccc2)C(=O)N(C(=O)C(C)C)CC3)ccn1` [Example 10, 2-methyl-N-{4-[5-(2-methylpropanoyl)-4-oxo-3-(phenylamino)-4,5,6,7-tetrahydro-1H-pyrrolo[3,2-c]pyridin-2-yl]pyridin-2-yl}propanamide]: 319 nM. Under `CN1CCc2[nH]c(-c3ccnc4[nH]cnc34)c(Nc3ccccc3)c2C1=O` [Example 36, 2-(3H-imidazo[4,5-b]pyridin-7-yl)-5-methyl-3-(phenylamino)-1,5,6,7-tetrahydro-4H-pyrrolo[3,2-c]pyridin-4-one] stands 34.8 nM; under `COCCOc1cnccc1-c1[nH]c2c(c1Nc1cccc(F)c1)C(=O)NCC2` [Example 47, 3-[(3-fluorophenyl)amino]-2-[3-(2-methoxyethoxy)pyridin-4-yl]-1,5,6,7-tetrahydro-4H-pyrrolo[3,2-c]pyridin-4-one], 19.4 nM. On to `CN1CCc2[nH]c(-c3ccncc3OCCC(C)(C)C)c(Nc3ccccc3)c2C1=O` [Example 35, 2-[3-(3,3-dimethylbutoxy)pyridin-4-yl]-5-methyl-3-(phenylamino)-1,5,6,7-tetrahydro-4H-pyrrolo[3,2-c]pyridin-4-one], for which the IC50 amounted to 85.9 nM. On to `CCn1c2c(c(Nc3ccccc3)c1-c1ccnc(C)c1)C(=O)NCC2` [Example 13, 1-ethyl-2-(2-methylpyridin-4-yl)-3-(phenylamino)-1,5,6,7-tetrahydro-4H-pyrrolo[3,2-c]pyridin-4-one], for which the IC50 was 972 nM.

As for `O=C1NCCc2[nH]c(-c3ccncc3)c(Nc3ccc(F)cc3)c21` [Example 7, 3-[(4-fluorophenyl)amino]-2-(pyridin-4-yl)-1,5,6,7-tetrahydro-4H-pyrrolo[3,2-c]pyridin-4-one], the IC50 was 19.8 nM. Under `CN1CCc2[nH]c(-c3ccncc3OCC(F)(F)F)c(Nc3ccccc3)c2C1=O` [Example 30, 5-methyl-3-(phenylamino)-2-[3-(2,2,2-trifluoroethoxy)pyridin-4-yl]-1,5,6,7-tetrahydro-4H-pyrrolo[3,2-c]pyridin-4-one] stands 84.3 nM. As to `Cc1cnccc1-c1[nH]c2c(c1Nc1ccccc1)C(=O)NCC2` [Example 3, 2-(3-methylpyridin-4-yl)-3-(phenylamino)-1,5,6,7-tetrahydro-4H-pyrrolo[3,2-c]pyridin-4-one], the IC50 came to 244 nM. Under `CCn1c2c(c(Nc3ccccc3)c1-c1ccncc1)C(=O)NC(C)(C)C2` [Example 4, 1-ethyl-6,6-dimethyl-3-(phenylamino)-2-(pyridin-4-yl)-1,5,6,7-tetrahydro-4H-pyrrolo[3,2-c]pyridin-4-one] stands 14.6 nM.

Regarding `COc1cnccc1-c1[nH]c2c(c1Nc1ccccc1)C(=O)N(C)CC2` [Example 22, 2-(3-methoxypyridin-4-yl)-5-methyl-3-(phenylamino)-1,5,6,7-tetrahydro-4H-pyrrolo[3,2-c]pyridin-4-one], the half-maximal inhibitory concentration (IC50) came out at 26.9 nM. Under `CC1(C)Cc2[nH]c(-c3ccncc3)c(Nc3ccccc3)c2C(=O)N1` [Example 1, 6,6-dimethyl-3-(phenylamino)-2-(pyridin-4-yl)-1,5,6,7-tetrahydro-4H-pyrrolo[3,2-c]pyridin-4-one] stands 11.6 nM; under `O=c1[nH]ccc2[nH]c(-c3ccncc3F)c(Nc3ccccc3)c12` [Example 16, 2-(3-fluoropyridin-4-yl)-3-(phenylamino)-1,5-dihydro-4H-pyrrolo[3,2-c]pyridin-4-one], 19.1 nM.

On to `O=C1NCCc2[nH]c(-c3ccncc3OCC3CC3)c(Nc3ccc(F)c(F)c3)c21` [Example 37, 2-[3-(cyclopropylmethoxy)pyridin-4-yl]-3-[(3,4-difluorophenyl)amino]-1,5,6,7-tetrahydro-4H-pyrrolo[3,2-c]pyridin-4-one], for which the IC50 turned out to be 59.8 nM. In the case of `CN1CCc2[nH]c(-c3ccncc3)c(Nc3ccccc3)c2C1=O` [Example 20, 5-methyl-3-(phenylamino)-2-(pyridin-4-yl)-1,5,6,7-tetrahydro-4H-pyrrolo[3,2-c]pyridin-4-one], the half-inhibitory concentration (IC50) was found to be 13.4 nM.

`CN1CCc2[nH]c(-c3ccncc3OC[C@H]3CCOC3)c(Nc3ccccc3)c2C1=O` [Example 34, 5-methyl-3-(phenylamino)-2-{3-[(3S)-tetrahydrofuran-3-ylmethoxy]pyridin-4-yl}-1,5,6,7-tetrahydro-4H-pyrrolo[3,2-c]pyridin-4-one]: the IC50 is 22.5 nM. With `O=C1NCCc2[nH]c(-c3ccncc3OCC3CC3)c(Nc3cccc(F)c3)c21` [Example 39, 2-[3-(cyclopropylmethoxy)pyridin-4-yl]-3-[(3-fluorophenyl)amino]-1,5,6,7-tetrahydro-4H-pyrrolo[3,2-c]pyridin-4-one], the IC50 came to 24.1 nM. In the case of `CN1CCc2[nH]c(-c3ccnc(NC(=O)C4CC4)c3)c(Nc3ccccc3)c2C1=O` [Example 24], the IC50 turned out to be 15.3 nM.

On to `CCNC(=O)Nc1cc(-c2[nH]c3c(c2Nc2ccccc2)C(=O)NCC3)ccn1` [Example 19, 1-ethyl-3-{4-[4-oxo-3-(phenylamino)-4,5,6,7-tetrahydro-1H-pyrrolo[3,2-c]pyridin-2-yl]pyridin-2-yl}urea], for which the IC50 came out at 19.5 nM. The same measure for `O=C1NCCc2[nH]c(-c3ccncc3OCC(F)F)c(Nc3cccc(F)c3)c21` [Example 41, 2-[3-(2,2-difluoroethoxy)pyridin-4-yl]-3-[(3-fluorophenyl)amino]-1,5,6,7-tetrahydro-4H-pyrrolo[3,2-c]pyridin-4-one]: 36.8 nM; for `CC(=O)Nc1cc(-c2[nH]c3c(c2Nc2ccccc2)C(=O)NCC3)ccn1` [Example 14]: 18.3 nM. Regarding `CN1CCc2[nH]c(-c3ccnc(N)c3)c(Nc3ccccc3)c2C1=O` [Example 21, 2-(2-aminopyridin-4-yl)-5-methyl-3-(phenylamino)-1,5,6,7-tetrahydro-4H-pyrrolo[3,2-c]pyridin-4-one], the IC50 was 170 nM. The same measure for `O=C1NCCc2[nH]c(-c3ccncc3OCC3CC3)c(Nc3ccc(F)cc3)c21` [Example 38, 2-[3-(cyclopropylmethoxy)pyridin-4-yl]-3-[(4-fluorophenyl)amino]-1,5,6,7-tetrahydro-4H-pyrrolo[3,2-c]pyridin-4-one]: 56.1 nM. Under `CN1CCc2[nH]c(-c3ccncc3OCC3CC3)c(Nc3ccccc3)c2C1=O` [Example 27, 2-[3-(cyclopropylmethoxy)pyridin-4-yl]-5-methyl-3-(phenylamino)-1,5,6,7-tetrahydro-4H-pyrrolo[3,2-c]pyridin-4-one] stands 21.7 nM. With `O=C1NCCc2[nH]c(-c3ccncc3F)c(Nc3ccccc3)c21` [Example 18, 2-(3-fluoropyridin-4-yl)-3-(phenylamino)-1,5,6,7-tetrahydro-4H-pyrrolo[3,2-c]pyridin-4-one], the IC50 was determined as 11.5 nM.
